The source of these data is BindingDB's records for doi:10.1016/0960-894X(96)00287-9 (1996).

SMILES strings stand for the structures. A value given as a limit tells only on which side of the number the result lay.

Experiment [1] is described as follows: Compound was tested for inhibition of NK1 receptor from gerbil midbrain; NT means not tested.
The nature of experiment [2]: Compound was tested for inhibition of [125I]eledoisin radioligand binding to NK3 receptor from gerbil cortex.
Experiment [3] in a line: Inhibition of [3H]-SP radioligand binding to NK1 receptor from bovine retina.

Take `CN(C)CCCOC(=O)N[C@H]1CCN(C(=O)c2cc(C(F)(F)F)cc(C(F)(F)F)c2)[C@H](Cc2ccccc2)C1` [[(2R,4S)-2-Benzyl-1-(3,5-bis-trifluoromethyl-benzoyl)-piperidin-4-yl]-carbamic acid 3-dimethylamino-propyl ester]: in experiment [1], 11 nM corresponded to half-maximal inhibition (IC50).
In the case of `O=C(Cc1ccccc1)N[C@H]1CCN(C(=O)c2cc(Cl)cc(Cl)c2)[C@H](Cc2ccccc2)C1` [N-[(2R,4S)-2-Benzyl-1-(3,5-dichloro-benzoyl)-piperidin-4-yl]-2-phenyl-acetamide], the IC50 (commonly the concentration needed to halve the response being measured) in experiment [1] was found to be 60 nM.
`O=C(c1ccc2ccccc2c1)N1CC[C@H](NCc2ccnc3ccccc23)C[C@H]1Cc1ccccc1` [{(2R,4S)-2-Benzyl-4-[(quinolin-4-ylmethyl)-amino]-piperidin-1-yl}-naphthalen-2-yl-methanone] returned an IC50 in experiment [1] of 700 nM. Compared with the last compound, the IC50 is about 12-fold higher.
For the compound `Cc1cc(C)cc(C(=O)N2CC[C@H](NCc3cnc4ccccc4c3)C[C@H]2Cc2ccccc2)c1` [{(2R,4S)-2-Benzyl-4-[(quinolin-3-ylmethyl)-amino]-piperidin-1-yl}-(3,5-dimethyl-phenyl)-methanone], the half-inhibitory concentration (IC50) worked out at 10000 nM in experiment [2] and 30 nM in experiment [3].
In experiment [1], `CC(C)NC(=O)N[C@H]1CCN(C(=O)c2cc(C(F)(F)F)cc(C(F)(F)F)c2)[C@H](Cc2ccccc2)C1` [1-[(2R,4S)-2-Benzyl-1-(3,5-bis-trifluoromethyl-benzoyl)-piperidin-4-yl]-3-isopropyl-urea] returned an IC50 of 20 nM.
In experiment [1], `O=C(Nc1ccccc1)N[C@H]1CCN(C(=O)c2cc(Cl)cc(Cl)c2)[C@H](Cc2ccccc2)C1` [1-[(2R,4S)-2-Benzyl-1-(3,5-dichloro-benzoyl)-piperidin-4-yl]-3-phenyl-urea] returned an IC50 of 72 nM.
Turning to `COc1cc(OC)cc(C(=O)N2CC[C@H](NCc3ccnc4ccccc34)C[C@H]2Cc2ccccc2)c1` [{(2R,4S)-2-Benzyl-4-[(quinolin-4-ylmethyl)-amino]-piperidin-1-yl}-(3,5-dimethoxy-phenyl)-methanone], the IC50 in experiment [1] was found to be 92 nM.
With `NC(=O)CN[C@H]1CCN(C(=O)c2cc(C(F)(F)F)cc(C(F)(F)F)c2)[C@H](Cc2ccccc2)C1` [2-[(2R,4S)-2-Benzyl-1-(3,5-bis-trifluoromethyl-benzoyl)-piperidin-4-ylamino]-acetamide], in experiment [1], the IC50 stood at 10 nM.
The same measure, in the same setting: with `O=C(c1cc(Cl)cc(Cl)c1)N1CC[C@H](N(Cc2ccnc3ccccc23)C(=O)C(F)(F)F)C[C@H]1Cc1ccccc1` [N-[(2R,4S)-2-Benzyl-1-(3,5-dichloro-benzoyl)-piperidin-4-yl]-2,2,2-trifluoro-N-quinolin-4-ylmethyl-acetamide] the figure was 600 nM.
Compound `Cc1cc(C)cc(C(=O)N2CC[C@H](NCc3cc4ccccc4cn3)C[C@H]2Cc2ccccc2)c1` [{(2R,4S)-2-Benzyl-4-[(isoquinolin-3-ylmethyl)-amino]-piperidin-1-yl}-(3,5-dimethyl-phenyl)-methanone] yielded a concentration for half-maximal inhibition (IC50) in experiment [1] of 19 nM. Against the preceding compound, the IC50 is about 32-fold lower.
As for `COc1cc(CC(=O)N[C@H]2CCN(C(=O)c3cc(C)cc(C)c3)[C@H](Cc3ccccc3)C2)cc(OC)c1` [N-[(2R,4S)-2-Benzyl-1-(3,5-dimethyl-benzoyl)-piperidin-4-yl]-2-(3,5-dimethoxy-phenyl)-acetamide], inhibition in experiment [1] was half-maximal at 12 nM (IC50). This IC50 is about 1.6-fold lower than that of the compound before.
In the case of `Cc1cc(C)cc(C(=O)N2CC[C@H](NCc3ccccc3)C[C@H]2Cc2ccccc2)c1` [((2R,4S)-2-Benzyl-4-benzylamino-piperidin-1-yl)-(3,5-dimethyl-phenyl)-methanone], in experiment [1], half-maximal inhibition (IC50) required 220 nM. Against the preceding compound, the IC50 is about 18-fold higher.
As for `O=C(c1cc(O)cc(O)c1)N1CC[C@H](NCc2ccnc3ccccc23)C[C@H]1Cc1ccccc1` [{(2R,4S)-2-Benzyl-4-[(quinolin-4-ylmethyl)-amino]-piperidin-1-yl}-(3,5-dihydroxy-phenyl)-methanone], in experiment [1], it took 520 nM to reach half-maximal inhibition (IC50). This IC50 is about 2.4-fold higher than that of the compound before.
In experiment [1], `O=C(c1cc(Br)cc(Br)c1)N1CC[C@H](NCc2ccnc3ccccc23)C[C@H]1Cc1ccccc1` [{(2R,4S)-2-Benzyl-4-[(quinolin-4-ylmethyl)-amino]-piperidin-1-yl}-(3,5-dibromo-phenyl)-methanone] had an IC50 of 24 nM.
For the compound `FC(F)(F)c1cc(CN2CC[C@H](NCc3ccnc4ccccc34)C[C@H]2Cc2ccccc2)cc(C(F)(F)F)c1` [[(2R,4S)-2-Benzyl-1-(3,5-bis-trifluoromethyl-benzyl)-piperidin-4-yl]-quinolin-4-ylmethyl-amine], the IC50 in experiment [1] stood at 880 nM.
In experiment [1], `NCC(=O)N[C@H]1CCN(C(=O)c2cc(C(F)(F)F)cc(C(F)(F)F)c2)[C@H](Cc2ccccc2)C1` [2-Amino-N-[(2R,4S)-2-benzyl-1-(3,5-bis-trifluoromethyl-benzoyl)-piperidin-4-yl]-acetamide] showed an IC50 of 62 nM.
Turning to `Cc1cc(C)cc(C(=O)N2CC[C@H](NCc3ccncc3)C[C@H]2Cc2ccccc2)c1` [{(2R,4S)-2-Benzyl-4-[(pyridin-4-ylmethyl)-amino]-piperidin-1-yl}-(3,5-dimethyl-phenyl)-methanone], the IC50 in experiment [1] was determined as 210 nM. Against the preceding compound, the IC50 is about 3.4-fold higher.
For the compound `O=C(c1cccc(Cl)c1)N1CC[C@H](NCc2ccnc3ccccc23)C[C@H]1Cc1ccccc1` [{(2R,4S)-2-Benzyl-4-[(quinolin-4-ylmethyl)-amino]-piperidin-1-yl}-(3-chloro-phenyl)-methanone], the IC50 in experiment [1] worked out at 54 nM. This IC50 is about 3.9-fold lower than that of the compound before.
Still for that read-out and setting: to `O=C(Cc1ccccc1)N1CC[C@H](NCc2ccnc3ccccc23)C[C@H]1Cc1ccccc1` [1-{(2R,4S)-2-Benzyl-4-[(quinolin-4-ylmethyl)-amino]-piperidin-1-yl}-2-phenyl-ethanone] belongs 3300 nM.
With `O=C(c1cc(Cl)cc(Cl)c1)N1CC[C@H](NCc2ccnc3ccccc23)C[C@H]1Cc1ccccc1` [{(2R,4S)-2-Benzyl-4-[(quinolin-4-ylmethyl)-amino]-piperidin-1-yl}-(3,5-dichloro-phenyl)-methanone], in experiment [1], half-maximal inhibition (IC50) was put at 26 nM. Against the preceding compound, the IC50 is about 130-fold lower.
`CN(Cc1ccnc2ccccc12)[C@H]1CCN(C(=O)c2cc(Cl)cc(Cl)c2)[C@H](Cc2ccccc2)C1` [[(2R,4S)-2-Benzyl-4-(methyl-quinolin-4-ylmethyl-amino)-piperidin-1-yl]-(3,5-dichloro-phenyl)-methanone] came in with an IC50 in experiment [1] of 390 nM.
On the same count and under the same terms, with `O=C(c1cccc2ccccc12)N1CC[C@H](NCc2ccnc3ccccc23)C[C@H]1Cc1ccccc1` [{(2R,4S)-2-Benzyl-4-[(quinolin-4-ylmethyl)-amino]-piperidin-1-yl}-naphthalen-1-yl-methanone] the figure was 110 nM; with `O=S(=O)(c1cc(C(F)(F)F)cc(C(F)(F)F)c1)N1CC[C@H](NCc2ccnc3ccccc23)C[C@H]1Cc1ccccc1` [[(2R,4S)-2-Benzyl-1-(3,5-bis-trifluoromethyl-benzenesulfonyl)-piperidin-4-yl]-quinolin-4-ylmethyl-amine], over 10000 nM.
Same read-out and setting: to `O=C(c1cc(C(F)(F)F)cc(C(F)(F)F)c1)N1CC[C@H](NCc2ccnc3ccccc23)C[C@H]1Cc1ccccc1` [{(2R,4S)-2-Benzyl-4-[(quinolin-4-ylmethyl)-amino]-piperidin-1-yl}-(3,5-bis-trifluoromethyl-phenyl)-methanone] belongs 17 nM.
